What was measured:
CD4 T cells = assay: CFSE proliferation assay of CD4 T cells from PBMCs of established T1D subjects; assay type: cell-based, human
NOD mouse = settings: administered at low doses; cited from earlier work

SHLVEALYLVCGEEG [B: 9-23 B22E, B:9-23 mimotope; B22 arginine to glutamic acid]
proliferation of CD4 T cells (CFSE dilution) (CD4 T cells): proliferation of CD4 T cells much more than the wild type peptide
inducing tolerance and preventing diabetes onset (NOD mouse): completely preventing diabetes onset
